Broadly, the koff is the rate constant with which the complex falls apart.

Molecules are shown by their SMILES.

In this test the target is Glucagon-like peptide 1 receptor (Homo sapiens, UniProt P43220). The test can be described thus: Binding affinity to GLP1R (unknown origin) assessed as dissociation rate constant by surface plasmon resonance analysis.
Sequence of Glucagon-like peptide 1 receptor (P43220 whole entry): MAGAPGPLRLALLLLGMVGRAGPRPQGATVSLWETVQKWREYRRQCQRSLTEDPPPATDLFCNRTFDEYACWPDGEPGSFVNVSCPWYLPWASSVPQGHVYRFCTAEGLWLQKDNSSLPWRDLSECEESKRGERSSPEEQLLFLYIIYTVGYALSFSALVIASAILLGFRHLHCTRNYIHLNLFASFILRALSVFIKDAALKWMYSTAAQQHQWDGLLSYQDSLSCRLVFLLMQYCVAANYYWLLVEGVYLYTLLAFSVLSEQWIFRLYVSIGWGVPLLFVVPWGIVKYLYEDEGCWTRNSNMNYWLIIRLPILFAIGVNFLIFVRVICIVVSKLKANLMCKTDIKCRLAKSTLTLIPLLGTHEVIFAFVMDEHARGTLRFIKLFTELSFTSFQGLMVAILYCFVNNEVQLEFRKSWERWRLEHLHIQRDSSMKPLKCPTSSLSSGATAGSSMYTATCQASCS
Turning to `CCCCCCCCCCCC(=O)N[C@@H](CCC(=O)NCCCC[C@H](NC(=O)CC[C@H](NC(=O)CCCCCCCCCCC)C(=O)O)C(=O)NCCOCCOCC(=O)NCCOCCOCC(=O)NCCOCCOCC(=O)O)C(=O)O`, the koff is 0.0237 s⁻¹.
Consider `CCCCCCCCCCCC(=O)N[C@@H](CCC(=O)NCCCC[C@H](NC(=O)CC[C@H](NC(=O)CCCCCCCCCCC)C(=O)O)C(=O)NCCOCCOCC(=O)O)C(=O)O`, for which the koff was determined as 0.0065 s⁻¹.
`CCCCCCCCCCCC(=O)N[C@@H](CCC(=O)NCCCC[C@H](NC(=O)CC[C@H](NC(=O)CCCCCCCCCCC)C(=O)O)C(=O)NCCOCCOCC(=O)NCCOCCOCC(=O)O)C(=O)O`: the koff amounted to 0.00857 s⁻¹.

Values taken from BindingDB's records for doi:10.1016/j.bmc.2021.116291 (Fudan University School of Pharmacy, 2021).
